Source: patent US20110287547A1, “NUCLEIC ACID DELIVERY COMPOSITIONS AND METHODS” (priority 2008, published 2011)
In brackets after ≈: the same amount, converted by molar mass. Read-outs that look alike come from different tables or passages of the source. Where a SMILES comes first, the peptide text is derived from it.

Tests used:
[1] = Cytotoxicity Assay (MTS Assay), Example 1 and CPPs; assay type: cell-based, human; conditions: human
Protocol: (§1) Cell Culture. Culturing of human epithelial lung cell line A549 was performed according to the protocol provided by the American Type Culture Collection. A549 was grown in F-12K supplemented with 10% v/v FBS and 1% v/v Penicillin/streptomycin at 37° C. in a humidified air atmosphere containing 5% CO2.
(§2) Cytotoxicity Assay (MTS Assay). […] A549 cells were grown as described in the transfection experiments. Cells were treated with the samples for approximately 24 hours. […] The cells were incubated for 3 hours at 37° C. in the 5% CO2 incubator. The absorbance of each well was then measured at 490 nm using a microtiter plate reader (SpectraMax, M25, Molecular Devices Corp., CA) to determine cell viability.

A549 cells [2] = experiment: Cytotoxicity Assay (MTS Assay), Example 1 and CPPs; assay type: cell-based, human; conditions: A549 cells, MTS
Protocol: as §1, §2

A549-luc-C8 cells = experiment: Assessment of cytotoxicity (MTS Assay), Example 4; assay type: cell-based, human; conditions: 24 hours, up to 5 mg/mL
Protocol: (§3) Cell culture. Culturing of human epithelial lung cell line A549-luc-C8, stably expressing luciferase, was performed according to the protocol provided by Caliper LifeSciences. A549-luc-C8 cells were grown in RPMI-1640 supplemented with 10% v/v heat inactivated FBS and 1% v/v Penicillin/streptomycin at 37° C. in a humidified air atmosphere containing 5% CO2.
as §2, with “Assessment of cytotoxicity” for “Cytotoxicity Assay”, “A549-luc-C8” for “A549”, “TAT, dTAT or PEI” for “samples”

A549 cells [3] = experiment: In vitro cell transfection (pGL3 luciferase gene expression), Example 1 method; assay type: cell-based, human; conditions: 1 day after transfection, 75, 150, 300 mM CaCl2, varying N/P ratios
Protocol: Particles of nano-sized TAT-Ca complexes were synthesized by rapidly adding and stirring 10 μL of either (0.1 μg/μL) pDNA or (30-50 nM) siRNA to 15 μL (1 μg/μL) of the TAT solution. To this solution, 15 μL of CaCl2 of known molarity (e.g. 0.3 M) was added and mixed by vigorous pipetting followed by 20-30 minutes incubation at room temperature or at 4° C. prior to use.
Preparation of PEI/pDNA Complexes. Polyethylenimine-DNA Complexes were prepared by adding 10 μl (0.1 μg/μL) of pDNA solution to 15 μL (N/P ratio of 5 or 10) polyethylenimine (PEI) solution drop-wise while stirring. Complexes were incubated at room temperature for 20-30 minutes before dilution 1.7 times (15 μL) with the appropriate buffer (e.g. nuclease-free water or CaCl2). Complexes were freshly prepared before each individual experiment.
In Vitro Cell Transfection Studies. A549 cells were trypsinized, counted and diluted to a concentration of approximately 80,000 cells/mL. Then 0.1 mL of that dilution was added to each well of a 96-well plate and the cells were incubated in a humidified atmosphere of 5% CO2 incubator at 37° C. for 24 hours. Immediately before transfection, the cells were washed once with PBS and 100 μl sample (20% of complex to 80% of serum free cell culture medium) was added to each well. Cells were incubated with the complexes for 5 hours. The transfection agent was then removed by aspiration and 100 μL of fresh serum medium was added followed by further incubation. The Luciferase Assay System from Promega was used to determine gene expression following the manufacturer's recommended protocol. The light units were normalized against protein concentration in the cells extracts, which were measured using the Coomassie Plus™ Protein Assay (Thermo Scientific). The transfection results were expressed as Relative Light Units (RLU) per mg of cellular protein.

A549 cells [4] = experiment: Cytotoxicity assay (MTS), Example 2; conditions: 46.9 mM CaCl2 only or in the complex
Protocol: (§4) Cytoxicity Assay. Cytotoxicity of the complexes was determined by the CellTiter 96® Aqueous Cell Proliferation Assay kit (MTS assay) from Promega. A549 cells were plated on 96-well plates with approximately 8,000 cells/well and incubated in a humid 5% CO2 incubator at 37° C. After 18-24 hours incubation, the medium was removed and the cells were washed with 100 μl serum free medium. Cells were treated with the samples for 12-24 hours. The serum free medium were then removed and replaced with a mixture of 100 μl fresh culture medium and 20 μl MTS reagent solution. The cells were incubated for 1-4 hours at 37° C. in 5% CO2 incubator. Cell viability was assessed by measuring the absorbance at 490 nm by plate reader (SpectraMax M5) and expressed as the ratio of the A490 of cells treated with inhibitors over the control samples.

A549 cells [5] = system: A549 cells
Protocol: as §4

[6] = Assessment of cytotoxicity (MTS Assay), Example 4; assay type: cell-based, human; conditions: human, A549-luc-C8 cells, up to 5 mg/mL
Protocol: as §3
as §2, with “Assessment of cytotoxicity” for “Cytotoxicity Assay”, “A549-luc-C8” for “A549”, “TAT, dTAT or PEI” for “samples”

Balb/C mice = conditions: 200 μL tail vein, Balb/C mouse
Protocol: Assessment of toxicity in vivo. Stock solutions of 0.3 M CaCl2, 10% Glucose, and 174 mg/ml dTAT were prepared. Non-silencing control siRNA (Dharmacon; Sense: […]tt; SEQ ID NO 16, Antisense: […]tt; SEQ ID NO 17) was dissolved in nuclease-free water (61.5 nM). The dTAT/siRNA complexes were prepared in 1.5 ml microcentrifuge tubes by mixing stock solutions (at concentrations indicated above). Formulation 1 used 15 μL of dTAT, 10 μL siRNA, 25 μL Glucose, and 5 μl CaCl2. Each ingredient was added to the previous component(s) and mixed by pipetting between each addition. Four of these formulas were individually prepared and kept at 4° C. for 20 minutes, then kept at room temperature for 5 minutes prior to injection. Remaining formulations (2-10) were prepared by a serial 1:2 dilution of stock siRNA solution and stock dTAT solution following the same experimental protocol as described above. The dTAT/siRNA complexes (volume=260 μl) were prepared for each individual animal and each 0.2 mL injection volume contained approximately the following amounts of dTAT peptide (mg/ml): 40, 20, 10, 5, 2.5, 1.25, 0.64, 0.32, 0.16, 0. Each formulation was administered via 200 μL injection into the tail vein of 12 week old male Balb/C mice (10 animals total).
In vivo dose escalating toxicity study. […] A dose escalating study was conducted in an effort to establish a lethal dose (LD50) for the dTAT peptide. For these studies, only a minimal amount of siRNA was included so that animal responses would be indicative of the toxicity of dTAT. Animals were administered the formulations via tail vein injection (200 μL) at doses up to 1,000 mg/kg of dTAT (Table 5).

CSCC[C@H](NC(=O)[C@H](CCCCN)NC(=O)[C@H](Cc1c[nH]c2ccccc12)NC(=O)[C@H](CCCCN)NC(=O)[C@@H](N)CCCCN)C(=O)N[C@@H](CCCNC(=N)N)C(=O)N[C@@H](CCCNC(=N)N)C(=O)N[C@@H](CC(N)=O)C(=O)N[C@@H](CCC(N)=O)C(=O)N[C@@H](Cc1ccccc1)C(=O)N[C@@H](Cc1c[nH]c2ccccc12)C(=O)N[C@H](C(=O)N[C@@H](CCCCN)C(=O)N[C@H](C(=O)N[C@@H](CCC(N)=O)C(=O)N[C@@H](CCCNC(=N)N)C(=O)NCC(=O)O)C(C)C)C(C)C [Alp] (H-KKWKMRRNQFWVKVQRG-OH)
IC50 at 24 h [1]: ~2140 µg/mL (≈ 942 µM)

N=C(N)NCCC[C@H](NC(=O)[C@H](CCCNC(=N)N)NC(=O)[C@H](CCCNC(=N)N)NC(=O)[C@H](CCC(N)=O)NC(=O)[C@H](CCCNC(=N)N)NC(=O)[C@H](CCCNC(=N)N)NC(=O)[C@H](CCCCN)NC(=O)[C@H](CCCCN)NC(=O)[C@@H](N)CCCNC(=N)N)C(N)=O [TAT]
cytotoxic effects (A549 cells [2]): no evidence of cytotoxic effects | cytotoxicity (A549-luc-C8 cells): almost no evidence of cytotoxicity

H-RKKRRHRRR-NH2 [TAT2]
added CaCl2 concentration at which complexes showed a higher level of gene expression (A549 cells [3]): 150 mM

H-RKKRRQRRRHRRKKR-NH2 [TAT5]
added CaCl2 concentration at which complexes showed a higher level of gene expression (A549 cells [3]): 300 mM

H-RRKRRQHRRR-NH2 [TAT4]
added CaCl2 concentration at which complexes showed a higher level of gene expression (A549 cells [3]): 150 mM

[Ca+2].[Cl-].[Cl-] [CaCl2, Calcium chloride]
cytotoxicity (A549 cells [4]): did not show cytotoxicity

H-RKKRRQHRRR-NH2 [TAT3]
added CaCl2 concentration at which complexes showed a higher level of gene expression (A549 cells [3]): 150 mM

protamine
IC50 (cytotoxicity) (A549 cells [5]): 890 µg/mL

N=C(N)NCCC[C@H](NC(=O)[C@H](CCCCN)NC(=O)[C@H](CCCCN)NC(=O)[C@H](CCCNC(=N)N)NC(=O)[C@H](CCCNC(=N)N)NC(=O)[C@H](Cc1c[nH]cn1)NC(=O)[C@H](CCCNC(=N)N)NC(=O)[C@H](CCCNC(=N)N)NC(=O)[C@H](CCCNC(=N)N)NC(=O)[C@H](CCC(N)=O)NC(=O)[C@H](CCCNC(=N)N)NC(=O)[C@H](CCCNC(=N)N)NC(=O)[C@H](CCCCN)NC(=O)[C@H](CCCCN)NC(=O)[C@@H](N)CCCNC(=N)N)C(=O)O [dTAT] (H-RKKRRQRRRHRRKKR-OH)
IC50 at 24 h [6]: ~4000 µg/mL (≈ 1820 µM) | Toxicity/Behavioral Effects (Balb/C mice; dTAT 0.16 mg/mL, total dose 3.90 mg/Kg, siRNA 0.03 nM): Normal | Toxicity/Behavioral Effects (Balb/C mice; dTAT 0.32 mg/mL, total dose 7.81 mg/Kg, siRNA 0.07 nM): Normal | Toxicity/Behavioral Effects (Balb/C mice; dTAT 0.64 mg/mL, total dose 15.63 mg/Kg, siRNA 0.14 nM): Normal | Toxicity/Behavioral Effects (Balb/C mice; dTAT 1.25 mg/mL, total dose 31.25 mg/Kg, siRNA 0.29 nM): Normal | Toxicity/Behavioral Effects (Balb/C mice; dTAT 2.5 mg/mL, total dose 62.5 mg/Kg, siRNA 0.59 nM): Normal | Toxicity/Behavioral Effects (Balb/C mice; dTAT 5 mg/mL, total dose 125 mg/Kg, siRNA 1.18 nM): Normal | Toxicity/Behavioral Effects (Balb/C mice; dTAT 10 mg/mL, total dose 250 mg/Kg, siRNA 2.36 nM): Normal | Toxicity/Behavioral Effects (Balb/C mice; dTAT 20 mg/mL, total dose 500 mg/Kg, siRNA 4.73 nM): Normal
